These results are taken from ChEMBL document CHEMBL1134328 (J Med Chem, 2001).

As usually defined, the Ki is a measure of affinity in units of concentration, obtained from inhibition or displacement. Low readings indicate a stronger hold on the target, high ones a looser hold on the target.

T1 sequence (Q05941 whole entry): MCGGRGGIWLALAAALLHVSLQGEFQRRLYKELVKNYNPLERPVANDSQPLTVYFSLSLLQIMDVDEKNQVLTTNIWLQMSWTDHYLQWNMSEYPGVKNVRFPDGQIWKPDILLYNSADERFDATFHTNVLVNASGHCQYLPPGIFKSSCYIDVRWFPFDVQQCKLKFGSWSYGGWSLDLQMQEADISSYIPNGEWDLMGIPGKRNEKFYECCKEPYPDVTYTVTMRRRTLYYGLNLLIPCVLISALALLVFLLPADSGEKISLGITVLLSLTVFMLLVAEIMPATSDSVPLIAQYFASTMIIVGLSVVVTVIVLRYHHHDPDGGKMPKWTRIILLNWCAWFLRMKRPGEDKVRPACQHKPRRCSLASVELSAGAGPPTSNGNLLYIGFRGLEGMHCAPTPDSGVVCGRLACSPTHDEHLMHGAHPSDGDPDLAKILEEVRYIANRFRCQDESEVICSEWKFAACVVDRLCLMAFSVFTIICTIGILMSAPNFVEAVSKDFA

One assay concerns the target T1, Neuronal acetylcholine receptor subunit alpha-7 (Rattus norvegicus, UniProt Q05941). Put plainly: In vitro binding affinity towards Nicotinic acetylcholine receptor alpha7 using [125I]alpha-bungarotoxin in rat brain. Format: tissue-based.
In turn, `CN1CCCC[C@H]1[C@@H]1CCc2ccccc2O1` (racemic) registered a Ki of more than 10 µM. Same read-out and setting: for `CN1CCCC[C@H]1[C@H]1CCc2cc(O)ccc2O1` (racemic) the value was more than 10 µM; for `Cc1ncccc1OCC1CCCN1` (single isomer, unassigned; form 1) [POZANICLINE], more than 10 µM. Still for that read-out and setting: the result for `CN1CCCC[C@H]1[C@@H]1CCc2cc(O)ccc2O1` (racemic) reads more than 10 µM. Still for that read-out and setting: the result for `CN1CCCC[C@H]1[C@H]1CCc2ccccc2O1` (racemic) reads more than 10 µM; that for `Cc1ncccc1OCC1CCCN1` (single isomer, unassigned; form 2), more than 10 µM.

Another assay concerns the target T1, Neuronal acetylcholine receptor subunit alpha-7. Put plainly: biochemical.
Description: In vitro binding affinity towards Nicotinic acetylcholine receptor alpha7 using [125I]-alpha-Bungarotoxin in rat brain
As to `O=c1cccc2n1C[C@@H]1CNC[C@H]2C1` [CYTISINICLINE], the Ki amounted to 0.0009 µM.
